The values that follow come from patent US10457677B2 (priority 2015, dated 2019).

Like-named read-outs stand apart in the source and are kept apart here.

In one assay the target is PI3K (p120γ) (human) (Homo sapiens (Human), UniProt P48736). In words: PI3K (p120γ) (human), non-radioactive assay (HTRF). In kind it is biochemical. Particulars: for IC50: read-out: IC50 (PI3Kgamma); for ratio IC50 (ATM) vs PI3Kgamma, selectivity with respect to PI3Kgamma: as printed:
The procedure:
PI3K (p120γ) (Human), Non-radioactive Assay
PI3K (p120γ) (human) was incubated in an assay buffer comprising 10 μM phosphati-dylinositol 4,5-bisphosphate and MgATP (concentration as necessary). The reaction was initiated by addition of MgATP solution. After an incubation time of 30 min at room temperature, the reaction was stopped by addition of a solution consisting of EDTA and biotinylated phosphatidylinositol 3,4,5-trisphosphate. Finally, the detection buffer, consisting of a europium-labelled anti-GST monoclonal antibody, a GST-labelled GRP1 PH domain and streptavidin allophycocyanin, was added. The plate was read out via homogeneous time-resolved fluorescence (HTRF) and the corresponding signals were evaluated via the formula HTRF=10000×(Em665nm/Em620nm). • MgATP=magnesium 5′-O—[hydroxy({[(hydroxyphosphinato)oxy]phosphinato}oxy)phosphoryl]adenosine • MgCl2=magnesium dichloride • EGTA=ethylene glycol bis(aminoethyl ether) N,N,N′,N′-tetraacetic acid • Tween 20=polysorbate 20 Medicament/pharmaceutical Composition

The target of a further assay is mTOR (human) (Homo sapiens (Human), UniProt P42345). In words: mTOR (human) kinase assay, [γ-33P-ATP] filter assay. In kind it is biochemical. The procedure: Furthermore, the effect, in particular inhibition, of other kinases and thus the selectivity of the compounds according to the invention can be determined with the aid of the following assay:
mTOR (human) was incubated with 50 mM HEPES pH 7.5, 1 mM EGTA, 0.01% Tween 20, 2 mg/ml of the substrate, 3 mM MnCl2 and [γ-^33P-ATP] (specific activity approximately 500 cpm/pmol, concentration as necessary). The reaction was initiated by addition of MgATP solution. After incubation at room temperature for 40 minutes, the reaction was stopped by addition of 3% phosphoric acid. 10 μl of the reaction solution were then transferred dropwise onto a P30 filtermat and washed three times for 5 min in 75 mM phosphoric acid and once in methanol, dried and evaluated by means of liquid scintillation counting.

The next assay deals with PI3K p110α/p85α (human) (Homo sapiens (Human), UniProt P42336). The assay can be described thus: PI3K p110α/p85α (human), non-radioactive assay (HTRF). In kind it is biochemical. The conditions noted are these: for IC50: read-out: IC50 (PI3Kalpha); for ratio IC50 (ATM) vs PI3Kalpha, selectivity with respect to PI3Kalpha: as printed:
The procedure: PI3K p110α/p85α (Human), Non-radioactive Assay
(§1) PI3K p110α/p85α (human) was incubated in an assay buffer comprising 10 μM phosphati-dylinositol 4,5-bisphosphate and MgATP (concentration as necessary). The reaction was initiated by addition of MgATP solution. After incubation at room temperature for 40 minutes, the reaction was stopped by addition of a solution consisting of EDTA and biotinylated phosphatidylinositol 3,4,5-trisphosphate. Finally, the detection buffer, consisting of a europium-labelled anti-GST monoclonal antibody, a GST-labelled GRP1 PH domain and streptavidin allophycocyanin, was added. The plate was read out via homogeneous time-resolved fluorescence (HTRF) and the corresponding signals were evaluated via the formula HTRF=10000×(Em665nm/Em620nm).

Assay [1] concerns phosphorylation of CHK2 (phospho-Thr68) in HCT116 cells. In words: Cellular pCHK2 assay: bleomycin-induced phosphorylation of CHK2 (phospho-Thr68), immunofluorescence high-content analysis. In kind it is cell-based, human. Particulars: Homo sapiens, HCT-116, 4 h, read-out: IC50 (pCHK2). The text has this: For the identification of substances which inhibit the phosphorylation of the protein kinase CHK2 at the amino acid threonine 68, an immunofluorescence-based “high content” analysis assay was used in HCT116 cells.
In vitro cell-based immunofluorescence assay for the identification of inhibitors of bleomycin-induced phosphorylation of CHK2 (phospho-Thr68) in the human colon carcinoma cell line HCT116:
HCT116 cells are sown out in a defined cell density in 384-well plates in culture medium (DMEM high glucose, 2 mM GlutaMax, 1 mM Na pyruvate, 10% FCS) and incubated overnight at 37° C. and 10% of CO2. On the following day, the test substances are added in a defined concentration range (1 nM to 30 μM) in combination with 10 μM bleomycin, where the concentration of the solvent DMSO is kept constant at 0.5%. […] Parallel staining of DNA with propidium iodide enables determination of the cell count. The pCHK2 signal is detected using a high-content imager (Molecular Devices IMX Ultra) and automatic image analysis using the MetaXpress software belonging to the instrument. The number of cell nuclei which have a pCHK2 signal above a defined background is determined.

The next assay addresses PI3K p110δ/p85α (human) (Homo sapiens (Human), UniProt O00329). In words: PI3K p110δ/p85α (human), non-radioactive assay (HTRF). In kind it is biochemical. Particulars: for IC50: read-out: IC50 (PI3Kdelta); for ratio IC50 (ATM) vs PI3Kdelta, selectivity with respect to PI3Kdelta: as printed:
The protocol:
PI3K p110δ/p85α (Human), Non-radioactive Assay
as §1, with “p110δ/p85α” for “p110α/p85α”, “After an” for “After”, “incubation time of 30 min” for “incubation”, “temperature,” for “temperature for 40 minutes,”

For assay [2], the target named is purified human recombinant ATM (ataxia telangiectasia mutated), full length (Homo sapiens (Human), UniProt Q13315). The assay can be described thus: ATM kinase assay - determination of ATM inhibition (IC50 ATM), TR-FRET. In kind it is biochemical. In outline: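 Full-length enzyme, expressed in a mammalian cell line, pre-incubated 15 min with inhibitor in 25 mM HEPES pH 8.0, 10 mM Mg(CH3COO)2, 1 mM MnCl2, 0,1% BSA, 0,01% Brij 35, 5 mM DTT. Full-length cmyc-p53 (Sf21-expressed) and ATP then added, 30-35 min at 22° C. EDTA stop; p53 S15 phosphorylation read by TR-FRET antibodies.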

Chain of PI3K p110α/p85α (human) (P42336 whole entry): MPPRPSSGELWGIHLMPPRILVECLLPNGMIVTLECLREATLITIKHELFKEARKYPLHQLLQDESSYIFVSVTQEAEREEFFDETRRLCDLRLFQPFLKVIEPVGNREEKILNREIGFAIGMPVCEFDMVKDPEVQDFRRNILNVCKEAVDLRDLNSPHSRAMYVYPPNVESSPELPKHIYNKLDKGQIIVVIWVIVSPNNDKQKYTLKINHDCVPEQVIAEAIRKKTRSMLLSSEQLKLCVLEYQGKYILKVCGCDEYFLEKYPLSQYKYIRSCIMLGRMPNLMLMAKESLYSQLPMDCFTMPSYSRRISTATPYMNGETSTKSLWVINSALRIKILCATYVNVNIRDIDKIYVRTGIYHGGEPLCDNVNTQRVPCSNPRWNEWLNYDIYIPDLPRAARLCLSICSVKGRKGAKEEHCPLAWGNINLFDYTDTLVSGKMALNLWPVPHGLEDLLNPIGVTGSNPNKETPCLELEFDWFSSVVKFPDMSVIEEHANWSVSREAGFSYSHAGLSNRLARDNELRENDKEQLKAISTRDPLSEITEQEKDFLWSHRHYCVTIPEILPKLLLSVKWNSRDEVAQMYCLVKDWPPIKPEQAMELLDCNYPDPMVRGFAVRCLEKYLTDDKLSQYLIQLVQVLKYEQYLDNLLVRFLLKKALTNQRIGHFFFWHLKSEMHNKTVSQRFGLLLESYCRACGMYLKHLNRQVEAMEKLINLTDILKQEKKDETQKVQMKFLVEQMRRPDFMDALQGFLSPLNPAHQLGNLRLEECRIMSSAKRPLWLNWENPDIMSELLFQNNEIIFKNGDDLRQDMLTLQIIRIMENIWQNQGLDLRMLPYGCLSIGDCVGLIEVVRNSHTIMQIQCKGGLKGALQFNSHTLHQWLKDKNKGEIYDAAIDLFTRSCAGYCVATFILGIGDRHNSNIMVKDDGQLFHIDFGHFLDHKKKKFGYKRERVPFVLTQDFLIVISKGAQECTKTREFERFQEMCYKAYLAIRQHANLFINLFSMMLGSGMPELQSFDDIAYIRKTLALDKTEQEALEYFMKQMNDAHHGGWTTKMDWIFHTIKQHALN
Chain of PI3K p110α/p85α (human) (P27986 whole entry partner): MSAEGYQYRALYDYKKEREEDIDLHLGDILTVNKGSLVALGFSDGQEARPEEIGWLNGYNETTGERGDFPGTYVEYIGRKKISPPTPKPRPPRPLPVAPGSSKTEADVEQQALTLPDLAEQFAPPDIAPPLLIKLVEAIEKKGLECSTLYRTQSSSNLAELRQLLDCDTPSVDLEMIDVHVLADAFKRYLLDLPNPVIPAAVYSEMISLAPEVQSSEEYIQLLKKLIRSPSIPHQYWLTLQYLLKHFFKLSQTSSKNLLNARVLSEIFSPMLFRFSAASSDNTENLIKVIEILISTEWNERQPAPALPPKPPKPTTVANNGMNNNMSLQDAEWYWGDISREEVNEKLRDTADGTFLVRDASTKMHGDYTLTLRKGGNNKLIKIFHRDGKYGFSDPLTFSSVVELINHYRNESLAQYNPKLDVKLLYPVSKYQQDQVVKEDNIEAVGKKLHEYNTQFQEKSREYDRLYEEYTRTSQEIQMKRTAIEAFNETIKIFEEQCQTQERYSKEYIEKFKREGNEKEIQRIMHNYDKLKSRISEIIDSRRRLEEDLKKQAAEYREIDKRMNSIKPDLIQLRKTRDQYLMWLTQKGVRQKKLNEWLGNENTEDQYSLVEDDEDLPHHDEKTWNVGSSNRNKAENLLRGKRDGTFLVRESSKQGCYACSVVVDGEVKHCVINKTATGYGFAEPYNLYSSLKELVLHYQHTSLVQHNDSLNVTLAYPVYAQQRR
Chain of PI3K p110δ/p85α (human) (O00329 whole entry): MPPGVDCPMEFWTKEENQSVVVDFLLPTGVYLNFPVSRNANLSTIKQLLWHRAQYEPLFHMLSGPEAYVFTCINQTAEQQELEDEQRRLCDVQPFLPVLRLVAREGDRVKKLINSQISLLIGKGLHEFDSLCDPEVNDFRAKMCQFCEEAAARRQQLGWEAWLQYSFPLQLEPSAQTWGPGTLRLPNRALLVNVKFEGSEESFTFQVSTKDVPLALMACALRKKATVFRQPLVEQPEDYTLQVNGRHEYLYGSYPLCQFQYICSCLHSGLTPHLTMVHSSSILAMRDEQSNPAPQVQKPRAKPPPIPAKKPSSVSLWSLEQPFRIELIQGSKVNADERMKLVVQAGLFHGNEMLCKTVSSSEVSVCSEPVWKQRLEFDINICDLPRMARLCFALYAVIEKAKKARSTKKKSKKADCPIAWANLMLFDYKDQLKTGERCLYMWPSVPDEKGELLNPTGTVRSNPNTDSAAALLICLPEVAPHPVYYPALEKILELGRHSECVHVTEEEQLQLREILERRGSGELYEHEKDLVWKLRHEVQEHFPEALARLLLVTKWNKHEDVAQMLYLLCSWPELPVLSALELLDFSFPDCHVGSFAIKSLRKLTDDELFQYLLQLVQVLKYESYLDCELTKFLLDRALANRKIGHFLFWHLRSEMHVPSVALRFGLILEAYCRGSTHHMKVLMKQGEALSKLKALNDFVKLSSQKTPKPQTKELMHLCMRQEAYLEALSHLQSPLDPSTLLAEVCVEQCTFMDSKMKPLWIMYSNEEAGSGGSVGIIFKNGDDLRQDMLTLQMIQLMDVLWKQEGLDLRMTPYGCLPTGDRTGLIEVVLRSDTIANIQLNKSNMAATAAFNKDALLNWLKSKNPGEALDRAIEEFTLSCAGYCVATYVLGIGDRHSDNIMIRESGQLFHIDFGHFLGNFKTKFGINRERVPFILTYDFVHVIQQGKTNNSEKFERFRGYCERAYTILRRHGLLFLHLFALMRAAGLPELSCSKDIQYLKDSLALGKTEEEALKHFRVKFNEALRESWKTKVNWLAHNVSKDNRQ
Chain of PI3K p110δ/p85α (human) (P27986 whole entry partner): as the sequence (P27986 whole entry partner) above
Chain of PI3K (p120γ) (human) (P48736 whole entry): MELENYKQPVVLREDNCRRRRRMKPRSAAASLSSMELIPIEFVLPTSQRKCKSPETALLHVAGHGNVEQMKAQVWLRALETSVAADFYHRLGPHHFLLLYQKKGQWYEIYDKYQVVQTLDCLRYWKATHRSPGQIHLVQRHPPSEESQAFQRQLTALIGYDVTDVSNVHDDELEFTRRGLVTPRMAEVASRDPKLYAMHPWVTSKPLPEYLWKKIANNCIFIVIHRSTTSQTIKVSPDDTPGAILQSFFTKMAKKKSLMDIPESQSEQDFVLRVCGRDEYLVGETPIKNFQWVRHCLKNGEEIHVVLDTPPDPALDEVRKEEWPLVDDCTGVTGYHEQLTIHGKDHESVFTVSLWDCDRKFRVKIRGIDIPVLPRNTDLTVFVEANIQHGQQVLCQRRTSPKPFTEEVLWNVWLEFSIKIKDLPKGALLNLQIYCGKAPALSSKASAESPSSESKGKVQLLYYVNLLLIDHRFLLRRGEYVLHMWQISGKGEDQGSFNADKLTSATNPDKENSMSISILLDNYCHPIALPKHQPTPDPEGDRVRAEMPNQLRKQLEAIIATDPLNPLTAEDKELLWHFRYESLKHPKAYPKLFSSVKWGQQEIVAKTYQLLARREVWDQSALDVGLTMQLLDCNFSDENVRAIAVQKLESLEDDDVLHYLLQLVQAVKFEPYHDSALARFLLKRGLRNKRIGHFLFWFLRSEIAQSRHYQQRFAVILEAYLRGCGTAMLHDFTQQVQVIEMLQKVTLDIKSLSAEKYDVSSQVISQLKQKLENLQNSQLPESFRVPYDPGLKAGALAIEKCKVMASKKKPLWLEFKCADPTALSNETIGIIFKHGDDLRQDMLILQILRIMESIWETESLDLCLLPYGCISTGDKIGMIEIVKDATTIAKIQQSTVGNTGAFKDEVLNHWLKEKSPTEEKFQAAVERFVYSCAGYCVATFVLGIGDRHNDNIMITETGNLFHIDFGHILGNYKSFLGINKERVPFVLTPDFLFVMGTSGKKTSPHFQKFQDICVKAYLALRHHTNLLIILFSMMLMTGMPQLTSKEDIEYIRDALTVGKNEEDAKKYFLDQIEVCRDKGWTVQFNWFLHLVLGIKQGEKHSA

On to `COc1cc2ncc3c(c2cc1-c1cn[nH]c1)n(-c1ccncc1C)c(=O)n3C` [Compound Example 19, 7-Methoxy-3-methyl-1-(3-methylpyridin-4-yl)-8-(1H-pyrazol-4-yl)-1,3-dihydro-imidazo[4,5-c]quinolin-2-one], for which the IC50 on PI3K (p120γ) (human) is above 30000 nM; against mTOR (human) it was above 5000 nM; at PI3K p110α/p85α (human) it was above 30000 nM; in assay [1], below 200 nM; at PI3K p110δ/p85α (human), above 30000 nM; in assay [2], below 10 nM. The IC50 in assay [2] (10 μM ATP, substrate p53) was below 10 nM.

For the compound `COc1cc2ncc3c(c2cc1-c1cnn(C)c1)n(-c1c(F)cncc1F)c(=O)n3C` [Compound Example 22, 1-(3,5-Difluoropyridin-4-yl)-7-methoxy-3-methyl-8-(1-methyl-1H-pyrazol-4-yl)-1,3-dihydroimidazo[4,5-c] quinolin-2-one], the IC50 on PI3K (p120γ) (human) was above 30000 nM; at mTOR (human), above 30000 nM; on PI3K p110α/p85α (human), above 30000 nM; in assay [1] it was below 200 nM; on PI3K p110δ/p85α (human) it was above 30000 nM; in assay [2], below 1 nM. For the same compound, the IC50 in assay [2] (10 μM ATP, substrate p53) is below 1 nM.

In the case of `CCn1cc(-c2cc3c(cc2OC)ncc2c3n(-c3c(F)cncc3F)c(=O)n2C)cn1` [Compound Example 26, 1-(3,5-Difluoropyridin-4-yl)-8-(1-ethyl-1H-pyrazol-4-yl)-7-methoxy-3-methyl-1,3-dihydroimidazo[4,5-c] quinolin-2-one], the IC50 at PI3K (p120γ) (human) was above 30000 nM; against mTOR (human), above 30000 nM; on PI3K p110α/p85α (human), above 30000 nM; in assay [1], below 200 nM; at PI3K p110δ/p85α (human) it was above 30000 nM; in assay [2], below 1 nM. The IC50 in assay [2] (10 μM ATP, substrate p53) is below 1 nM.

Take `COc1cc2ncc3c(c2cc1-c1cn[nH]c1)n(-c1ccncc1OC)c(=O)n3C` [Compound Example 32, 7-Methoxy-1-(3-methoxy-pyridin-4-yl)-3-methyl-8-(1H-pyrazol-4-yl)-1,3-dihydroimidazo[4,5-c]-quinolin-2-one]: the IC50 on PI3K (p120γ) (human) is above 30000 nM; against mTOR (human), above 10000 nM; at PI3K p110α/p85α (human) it was above 30000 nM; in assay [1] it was below 200 nM; at PI3K p110δ/p85α (human), above 30000 nM; in assay [2] it was below 10 nM. In assay [2] (10 μM ATP, substrate p53), the IC50 is below 10 nM.

For `CCc1cncc(C)c1-n1c(=O)n(C)c2cnc3cc(OC)c(-c4cnn(CC)c4)cc3c21` [compound 61, 1-(3-Ethyl-5-methylpyridin-4-yl)-8-(1-ethyl-1H-pyrazol-4-yl)-7-methoxy-3-methyl-1,3-dihydroimidazo[4,5-c] quinolin-2-one], the IC50 was above 30000 nM at mTOR (human); above 30000 nM at PI3K p110α/p85α (human); 1000 to 2000 nM in assay [1]; above 30000 nM at PI3K p110δ/p85α (human); below 10 nM in assay [2]; below 10 nM in assay [2] (10 μM ATP, substrate p53).

Turning to `COc1cc2ncc3c(c2cc1-c1cnn(C)c1)n(-c1cc2[nH]ccc2cn1)c(=O)n3C` [compound 120, 7-Methoxy-3-methyl-8-(1-methyl-1H-pyrazol-4-yl)-1-(1H-pyrrolo[3,2-c]pyridin-6-yl)-1,3-dihydroimidazo-[4,5-c]quinolin-2-one], at PI3K (p120γ) (human), the “ratio IC50 (ATM) vs PI3Kgamma, selectivity with respect to PI3Kgamma” value was “at least 2000 times”. Besides, the “ratio IC50 (ATM) vs PI3Kalpha, selectivity with respect to PI3Kalpha” value on PI3K p110α/p85α (human) was “at least 2000 times”. Also, the IC50 is 200 to 1000 nM in assay [1] and below 1 nM in assay [2] (10 μM ATP, substrate p53). The “ratio IC50 (ATM) vs PI3Kdelta, selectivity with respect to PI3Kdelta” value at PI3K p110δ/p85α (human) was “at least 2000 times”.

Consider `COc1cnc(-n2c(=O)n(C)c3cnc4cc(OC)c(-c5c[nH]nc5C)cc4c32)c(F)c1` [compound 122, 1-(3-Fluoro-5-methoxy-pyridin-2-yl)-7-methoxy-3-methyl-8-(3-methyl-1H-pyrazol-4-yl)-1,3-dihydro-imidazo[4,5-c] quinolin-2-one], for which the “ratio IC50 (ATM) vs PI3Kgamma, selectivity with respect to PI3Kgamma” value at PI3K (p120γ) (human) was “at least 2000 times”. Moreover, the “ratio IC50 (ATM) vs PI3Kalpha, selectivity with respect to PI3Kalpha” value at PI3K p110α/p85α (human) is “at least 2000 times”. In addition, the IC50 in assay [1] is below 200 nM; in assay [2] (10 μM ATP, substrate p53), below 1 nM. In addition, the “ratio IC50 (ATM) vs PI3Kdelta, selectivity with respect to PI3Kdelta” value on PI3K p110δ/p85α (human) was “at least 2000 times”.

For `COc1cc2ncc3c(c2cc1-c1cnn(C)c1)n(-c1ncc(N2CCNCC2)cc1F)c(=O)n3C` [compound 123, 1-(3-Fluoro-5-piperazin-1-yl-pyridin-2-yl)-7-methoxy-3-methyl-8-(1-methyl-1H-pyrazol-4-yl)-1,3-dihydro-imidazo[4,5-c]quinolin-2-one], at PI3K (p120γ) (human), the “ratio IC50 (ATM) vs PI3Kgamma, selectivity with respect to PI3Kgamma” value is “at least 2000 times”. On PI3K p110α/p85α (human), the “ratio IC50 (ATM) vs PI3Kalpha, selectivity with respect to PI3Kalpha” value is on record as “at least 2000 times”. Moreover, the IC50 in assay [1] was 200 to 1000 nM; in assay [2] (10 μM ATP, substrate p53) it was below 10 nM. The “ratio IC50 (ATM) vs PI3Kdelta, selectivity with respect to PI3Kdelta” value at PI3K p110δ/p85α (human) was “at least 2000 times”.

Consider `CCc1cncc(F)c1-n1c(=O)n(C)c2cnc3cc(OC)c(-c4cn(C)nn4)cc3c21` [compound 126, 1-(3-Ethyl-5-fluoropyridin-4-yl)-7-methoxy-3-methyl-8-(1-methyl-1H-1,2,3-triazol-4-yl)-1,3-dihydroimidazo-[4,5-c] quinolin-2-one], for which the “ratio IC50 (ATM) vs PI3Kgamma, selectivity with respect to PI3Kgamma” value on PI3K (p120γ) (human) is given as “at least 2000 times”. The “ratio IC50 (ATM) vs PI3Kalpha, selectivity with respect to PI3Kalpha” value on PI3K p110α/p85α (human) was “at least 2000 times”. The IC50 in assay [1] was 200 to 1000 nM; in assay [2] (10 μM ATP, substrate p53) it was below 10 nM. Also, on PI3K p110δ/p85α (human), the “ratio IC50 (ATM) vs PI3Kdelta, selectivity with respect to PI3Kdelta” value is listed as “at least 2000 times”.

As for `COc1cc2ncc3c(c2cc1-c1cnn(C)c1)n(-c1ncc(OC2CNC2)cc1F)c(=O)n3C` [compound 205, 1-[5-(Azetidin-3-yloxy)-3-fluoropyridin-2-yl]-7-methoxy-3-methyl-8-(1-methyl-1H-pyrazol-4-yl)-1,3-dihydroimidazo[4,5-c]-quinolin-2-one], the “ratio IC50 (ATM) vs PI3Kgamma, selectivity with respect to PI3Kgamma” value at PI3K (p120γ) (human) is on record as “at least 2000 times”. In addition, at PI3K p110α/p85α (human), the “ratio IC50 (ATM) vs PI3Kalpha, selectivity with respect to PI3Kalpha” value is listed as “at least 2000 times”. Also, the IC50 in assay [1] was 200 to 1000 nM; in assay [2] (10 μM ATP, substrate p53), below 1 nM. Besides, the “ratio IC50 (ATM) vs PI3Kdelta, selectivity with respect to PI3Kdelta” value on PI3K p110δ/p85α (human) is given as “at least 2000 times”.
